Reference: patent publication US11072635B2, “Macrocyclic broad spectrum antibiotics” (priority 2015, dated 2021)
≈ marks a conversion by molar mass, not a printed value. Like-named read-outs stand apart in the source and are kept apart here.

Assays:
[1] = test system: Escherichia coli MC4100 harboring the IMP4213 (E. coli IMP); experiment: microbe, parasite or virus in culture; format: cell-based; settings: 22 h, read-out: MIC (μg/mL) E. coli IMP
Description: (§1) In vitro antimicrobial activity of each compound was determined by measuring minimal inhibitor concentrations (MICs) using the broth micro-dilution technique as approved by the Clinical and Laboratory Standards Institute (CLSI) (Methods for Dilution Antimicrobial Susceptibility Tests for Bacteria that Grow Aerobically; Approved Standard—Eighth Edition. CLSI document M07-A8. Wayne, Pa.: Clinical and Laboratory Standards; 2009). Antibacterial activity was measure against three strains of bacteria: a Methicillin Resistant Staphylococcus aureus strain USA 300, NRS384 (S. aureus); a strain of Escherichia coli MC4100 harboring the IMP4213 (E. coli IMP), which results in increased outer-membrane permeability (B Martin and Silhavy T. Imp/OstA is required for cell envelope biogenesis in Escherichia coli. (2002) Molecular Microbiology, 45(5), 1289-1302), and Escherichia coli ATCC 25922 (E. coli), a clinically relevant Gram-negative strain. Cells were inoculated onto plates of Trypyticase Soy Agar or Luria Agar respectively and grown at 35° C. for 20 hours. Inocula suspensions were prepared by scraping cells into 1 mL of testing media (cation adjusted Mueller Hinton Broth supplemented with 0.002% v/v Tween-80) and diluting to a final OD600 nm of 0.01.
(§2) Test compounds were prepared in DMSO at a concentration of 10 mg/mL. […] In protocol 2, the compound stocks were diluted into testing media at a concentration of 4 μg/mL and serial 2-fold dilutions were made in the same media, in 96-well U bottom microtiter dishes, for a total of 10 compound concentrations. In protocol 3, compound stocks were diluted into testing media at a concentration of 0.5 μg/mL, with serial 2-fold dilutions conducted as described above. […] Inocula suspensions were added to the 2-fold serial dilutions of test compounds to a final density of OD OD600 nm of 0.0005 and incubated at 35° C. for 22 hours.

[2] = test system: Escherichia coli ATCC 25922 (E. coli); experiment: Minimum inhibitory concentration, broth micro-dilution (CLSI); format: cell-based; settings: read-out: MIC (μg/mL) E. coli
Description: Cells were inoculated onto plates of Trypyticase Soy Agar or Luria Agar respectively and grown at 35° C. for 20 hours. Inocula suspensions were prepared by scraping cells into 1 mL of testing media (cation adjusted Mueller Hinton Broth supplemented with 0.002% v/v Tween-80) and diluting to a final OD600 nm of 0.01.
as §2

[3] = target: T1, SpsB (Staphylococcus aureus signal peptidase) (Staphylococcus aureus, UniProt P0A070); experiment: Whole-cell SpsB biochemical screening assay (kinetic fluorogenic enzyme activity)
T1 construct: a suspension of Staphylococcus aureus cells as a source of SpsB instead of recombinant SpsB protein; endogenous in cells; host or cells: S. aureus, USA300 background, overexpressing SpsB (whole-cell suspension)
Description: A kinetic fluorogenic enzyme activity assay was used to assess inhibition of SpsB (Staphylococcus aureus signal peptidase) activity and IC50s were determined. This assay uses a suspension of Staphylococcus aureus cells as a source of SpsB instead of recombinant SpsB protein.
Cell preparation: Luria broth (LB) was inoculated with S. aureus (USA300 background, overexpressing SpsB) and shaken at 37° C. until an OD600 nm of 1.5-2.0 was reached (˜4 hr). The culture was then diluted to an OD600 nm of 1.0 with LB, aliquoted and centrifuged at 10,000×g for 2 mins. The supernatant was removed and the pellet was resuspended in phosphate buffer (1×PBS, 12.5 mg/L MgCl2, 25 mg/L CaCl2, 0.1% Tween-80) to an OD600 nm of 0.5, then centrifuged again at 10,000×g for 2 mins. The supernatant was removed and the pellets were frozen at −20° C.
Test compounds were prepared in DMSO at a concentration of 10 mg/mL. These compound stocks were diluted into DMSO to a concentration of 25 μg/mL and serial 3-fold dilutions were made in DMSO, for a total of 11 compound concentrations. 20 nL of each compound solution was pre-spotted into a white 384-well plate (50 μL/well polypropylene, Nunc) using acoustic fluid transfer (Echo).
Frozen S. aureus pellets were resuspended in assay buffer (1×PBS, 12.5 mg/L MgCl2, 25 mg/L CaCl2, 0.1% Tween-80) to an OD600 nm of 0.05, then mixed 1:1 (v/v) with 20 μM substrate ((Dabcyl)βAla-KPAKAAE(Edans)) in assay buffer, and this solution was added (20 μL/well) to the 384-well plate that had been pre-spotted with compound. Fluorescence intensity was then immediately read kinetically for 30 minutes with 2 minute read intervals to monitor cleavage of the internally quenched peptide substrate (excitation wavelength=340 nm, emission wavelength=490 nm, Molecular Devices Spectramax M5). Reaction rate (slope) was plotted against inhibitor concentration to derive the IC50.

[4] = test system: Methicillin Resistant Staphylococcus aureus strain USA 300, NRS384 (S. aureus); experiment: Minimum inhibitory concentration, broth micro-dilution (CLSI); format: cell-based
Description: as §1, §2

[5] = MRSA / NRS 384 / USA300, 22 h, read-out: MIC (μg/mL) S. aureus
[6] = ATCC25922, E. coli ATCC 25922, 35° C., 22 hours
[7] = MRSA / NRS 384 / USA300, MRSA USA 300, NRS384, 35° C., 22 hours, cation adjusted Mueller Hinton Broth with 0.002% Tween-80, read-out: MIC (μg/mL) S. aureus

T1 sequence (P0A070 whole entry): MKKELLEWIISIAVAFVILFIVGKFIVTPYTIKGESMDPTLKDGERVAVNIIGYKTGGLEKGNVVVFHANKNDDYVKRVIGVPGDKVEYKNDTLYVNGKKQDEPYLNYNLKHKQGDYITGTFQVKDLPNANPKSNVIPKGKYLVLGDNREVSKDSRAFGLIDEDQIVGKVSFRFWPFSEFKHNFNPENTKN

C#CCNC(=O)[C@@H]1Cc2ccc(OCCN)c(c2)-c2cc(ccc2OCCN)[C@H](N(C)C(=O)[C@H](CCCN)NC(=O)c2ccc(-c3ccc(CCCC)cc3)cc2)C(=O)N[C@@H](C)C(=O)N1 [Compound 129]
MIC [1]: 0.094 µg/mL (≈ 0.106 µM) | MIC ([2]; ATCC25922, 22 h): 4 µg/mL (≈ 4.51 µM) | IC50 [3]: 2.2 nM | MIC [4, 5]: 0.5 µg/mL (≈ 0.564 µM)

CCCCc1ccc(-c2ccc(C(=O)N[C@@H](CCCN)C(=O)N(C)[C@@H]3C(=O)N[C@@H](C)C(=O)N[C@H](c4ncc(C#N)[nH]4)Cc4ccc(OCCN)c(c4)-c4cc3ccc4OCCN)cc2)cc1 [Compound 139]
MIC [1]: 1.5 µg/mL (≈ 1.67 µM) | MIC [2, 6]: 24 µg/mL (≈ 26.8 µM) | IC50 [3]: 110 nM | MIC [4, 7]: 1 µg/mL (≈ 1.11 µM)

CCCCc1ccc(-c2ccc(C(=O)N[C@@H](CN)C(=O)N(C)[C@@H]3C(=O)N[C@@H](C)C(=O)N[C@H](C#N)Cc4ccc(OCCN)c(c4)-c4cc3ccc4OCCN)cc2)cc1 [Compound 124]
MIC [1]: 0.5 µg/mL (≈ 0.623 µM) | MIC [2, 6]: 8 µg/mL (≈ 9.96 µM) | IC50 [3]: 14 nM | MIC [4, 7]: 1 µg/mL (≈ 1.25 µM)

CCCCc1ccc(-c2ccc(C(=O)N[C@@H](CCCN)C(=O)N(C)[C@@H]3C(=O)N[C@@H](C)C(=O)N[C@H](C(=O)NS(N)(=O)=O)Cc4ccc(OCCN)c(c4)-c4cc3ccc4OCCN)cc2)cc1 [Compound 128]
MIC [1]: 0.012 µg/mL (≈ 0.0129 µM) | MIC ([2]; ATCC25922, 22 h): 0.75 µg/mL (≈ 0.808 µM) | IC50 [3]: 1.5 nM | MIC [4, 5]: 1.5 µg/mL (≈ 1.62 µM)

CCCCCCCCCCCCCC(=O)N[C@@H](CCN)C(=O)N(C)[C@@H]1C(=O)N[C@@H](C)C(=O)N[C@H](c2noc(=O)[nH]2)Cc2ccc(OCCN)c(c2)-c2cc1ccc2OCCN [Compound 143]
MIC [1]: 0.023 µg/mL (≈ 0.0271 µM) | MIC [2, 6]: 0.5 µg/mL (≈ 0.588 µM) | IC50 [3]: 1.5 nM | MIC [4, 7]: 0.13 µg/mL (≈ 0.153 µM)

CCCCc1ccc(-c2ccc(C(=O)N[C@@H](CCCN)C(=O)N(C)[C@@H]3C(=O)N[C@@H](C)C(=O)N[C@H](c4ncc(C(F)(F)F)[nH]4)Cc4ccc(OCCN)c(c4)-c4cc3ccc4OCCN)cc2)cc1 [Compound 140]
MIC [1]: 1 µg/mL (≈ 1.06 µM) | MIC [2, 6]: 32 µg/mL (≈ 34 µM) | IC50 [3]: 370 nM | MIC [4, 7]: 4 µg/mL (≈ 4.25 µM)

CCCCCCCCc1ccc(C(=O)N[C@@H](CCN)C(=O)N(C)[C@@H]2C(=O)N[C@@H](C)C(=O)N[C@H](C(=O)NOC)Cc3ccc(OCCN)c(c3)-c3cc2ccc3OCCN)c(C)c1 [Compound 113]
MIC [1]: 0.047 µg/mL (≈ 0.0547 µM) | MIC ([2]; ATCC25922, 22 h): 4 µg/mL (≈ 4.66 µM) | IC50 [3]: 1.2 nM | MIC [4, 5]: 0.063 µg/mL (≈ 0.0733 µM)

CCCCc1ccc(-c2ccc(C(=O)N[C@@H](CN)C(=O)N(C)[C@@H]3C(=O)N[C@@H](C)C(=O)N[C@H](CC#N)Cc4ccc(OCCN)c(c4)-c4cc3ccc4OCCN)cc2)cc1 [Compound 127]
MIC [1]: 2 µg/mL (≈ 2.45 µM) | MIC [2, 6]: 32 µg/mL (≈ 39.2 µM) | IC50 [3]: 2.7 nM | MIC [4, 7]: 2 µg/mL (≈ 2.45 µM)

CCCCc1ccc(-c2ccc(C(=O)N[C@@H](CCCCN)C(=O)N(C)[C@@H]3C(=O)N[C@@H](C)C(=O)N[C@H](C(=O)Nc4ccncc4C#N)Cc4ccc(OCCN)c(c4)-c4cc3ccc4OCCN)cc2)cc1 [Compound 121]
MIC [1]: 0.25 µg/mL (≈ 0.259 µM) | MIC [2, 6]: 8 µg/mL (≈ 8.29 µM) | IC50 [3]: 12 nM | MIC [4, 7]: 4 µg/mL (≈ 4.14 µM)

CCCCc1ccc(-c2ccc(C(=O)N[C@@H](CN)C(=O)N(C)[C@@H]3C(=O)N[C@@H](C)C(=O)N[C@H](c4noc(=O)[nH]4)Cc4ccc(OCCN)c(c4)-c4cc3ccc4OCCN)cc2)cc1 [Compound 125]
MIC [1]: 0.036 µg/mL (≈ 0.0418 µM) | MIC [2, 6]: 0.5 µg/mL (≈ 0.58 µM) | IC50 [3]: 1 nM | MIC [4, 7]: 0.38 µg/mL (≈ 0.441 µM)

CCCCc1ccc(-c2ccc(C(=O)N[C@@H](CCCN)C(=O)N(C)[C@@H]3C(=O)N[C@@H](C)C(=O)N[C@H](C(=O)NO)Cc4ccc(OCCN)c(c4)-c4cc3ccc4OCCN)cc2)cc1 [Compound 136]
MIC [1]: 0.13 µg/mL (≈ 0.15 µM) | MIC ([2]; ATCC25922, 22 h): 2 µg/mL (≈ 2.31 µM) | IC50 [3]: 1.2 nM | MIC [4, 5]: 0.38 µg/mL (≈ 0.439 µM)

CCCCCCCCc1ccc(C(=O)N[C@@H](CCN)C(=O)N(C)[C@@H]2C(=O)N[C@@H](C)C(=O)N[C@H](c3noc(=S)[nH]3)Cc3ccc(OCCN)c(c3)-c3cc2ccc3OCCN)c(C)c1 [Compound 133]
MIC [1]: 0.094 µg/mL (≈ 0.106 µM) | MIC [2, 6]: 8 µg/mL (≈ 9.03 µM) | IC50 [3]: 2.3 nM | MIC [4, 7]: 1 µg/mL (≈ 1.13 µM)

CCCCc1ccc(-c2ccc(C(=O)N[C@@H](CN)C(=O)N(C)[C@@H]3C(=O)N[C@@H](C)C(=O)N[C@H](c4n[nH]c(=O)[nH]4)Cc4ccc(OCCN)c(c4)-c4cc3ccc4OCCN)cc2)cc1 [Compound 126]
MIC [1]: 0.031 µg/mL (≈ 0.036 µM) | MIC [2, 6]: 1 µg/mL (≈ 1.16 µM) | IC50 [3]: 6.2 nM | MIC [4, 7]: 4 µg/mL (≈ 4.65 µM)

CCCCCCCCc1ccc(C(=O)N[C@@H](CCN)C(=O)N(C)[C@@H]2C(=O)N[C@@H](C)C(=O)N[C@H](c3noc(=O)[nH]3)Cc3ccc(OCCN)c(c3)-c3cc2ccc3OCCN)c(C)c1 [Compound 131]
MIC [1]: 0.0078 µg/mL (≈ 0.00896 µM) | MIC [2, 6]: 0.5 µg/mL (≈ 0.575 µM) | IC50 [3]: 2.1 nM | MIC [4, 7]: 0.094 µg/mL (≈ 0.108 µM)

CCCCCCCCCCCCCC(=O)N[C@@H](CCCCN)C(=O)N(C)[C@@H]1C(=O)N[C@@H](C)C(=O)N[C@H](C(=O)NCCC#N)Cc2ccc(OCCN)c(c2)-c2cc1ccc2OCCN [Compound 120]
MIC [1]: 0.5 µg/mL (≈ 0.562 µM) | MIC [2, 6]: 16 µg/mL (≈ 18 µM) | IC50 [3]: 18 nM | MIC [4, 7]: 2 µg/mL (≈ 2.25 µM)

CCCCc1ccc(-c2ccc(C(=O)N[C@@H](CN)C(=O)N(C)[C@@H]3C(=O)N[C@@H](C)C(=O)N[C@H](c4nnn[nH]4)Cc4ccc(OCCN)c(c4)-c4cc3ccc4OCCN)cc2)cc1 [Compound 123]
MIC [1]: < 0.063 µg/mL | MIC [2, 6]: 8 µg/mL (≈ 9.46 µM) | IC50 [3]: 15 nM | MIC [4, 7]: 1.5 µg/mL (≈ 1.77 µM)
